Measured values as given in patent publication US11802305B2, “Detection processes using sites of chromosome interaction” (Oxford Biodynamics PLC, priority 2015, dated 2023).

How the values were obtained:
[1] = cited from earlier work
MYD88 locus = conditions: 72 hr treatment with TCP (1 uM), AML cell lines THP-1 and MV4-11, relative to untreated cells
Protocol: Two AML (acute myeloid leukemia) cell lines THP-1 and MV4-11 were tested with the above compound. […] The positions across the gene have been created and selected based on restriction sites and other features of detection and primer efficiency and were then analysed for interactions. […] Below are the PCR EpiSwitch™ marker results for the MyD88 locus for cell lines THP-1 and MV4-11. FACS analysis was used to sort for the expression of CD11b± cells, as an indicator of differentiation.
However, epigenetic changes observed for chromosome signatures are clean to follow a binary format of 0 or 1.

Structure (SMILES)	effect on lifespan of ALS patients [1]	fold change at MYD88 locus (GEX and EpiSwitch) (MYD88 locus) [fold]
Nc1nc2ccc(OC(F)(F)F)cc2s1 [riluzole]	modest increase in lifespan	
N[C@@H]1C[C@H]1c1ccccc1 (racemic) [TCP, tranylcypromine]		1.5
